Key:
[1] = system: WT and mutants (Leu to Ala, Leu to Val and Leu to Ile) of Brd2(2); assay: ITC of compound into protein (FIG. 16); format: binding, human; conditions: 250 μM compound into 25 μM protein; result in words
Method: To investigate the utility of the new compounds further, the inventors performed isothermal titration experiments by titrating 250 μM compound solutions (AL, ME-Am1, ET-Am1, ME-Am2, ET-Am2, 9-ME, 9-ET, 9-ME-Am1 and 9-ET-Am1) 25 μM protein solutions (WT and mutants (Leu to Ala, Leu to Val and Leu to Ile) of Brd2(2)).
ITC experiments were carried out on a ITC200 instrument from MicroCal™ Experiments were conducted at 3 different temperatures 15° C., 25° C. and 30° C., while stirring at 1000 rpm. Buffers of proteins, peptide and compounds were matched to 20 mM HEPES pH 7.5 at 25° C. and 100 mM NaCl. Frozen protein was buffer exchanged as described for the DSF experiments. Each titration comprised 1 initial injection of 0.4 μl lasting 0.8 s, followed by 19 injections of 2 μl lasting 4 s each at 2 min intervals. The initial injection was discarded during data analysis. Standard and reverse titrations were conducted depending on the binding partners.
All the data was fitted to a single binding site model using the Microcal LLC ITC200 Origin software provided by the manufacturer to yield enthalpies of binding (ΔH) and binding constants (Kas). Further thermodynamic parameters were calculated from these values (changes in entropy ΔS, changes in free energy AG and dissociation constants (Kds)).

Brd2(1)*(Met165Ala) = Brd2(1)*(Met165Ala) (Homo sapiens, UniProt P25440, M165A); assay: DSF thermal shift; format: binding; parameters: Plasmids of the eight single BET bromodomain constructs Brd2(1), Brd2(2), Brd3(1), Brd3(2); His6 (N); made in house; host or cells: E. coli BL21(DE3); conditions: mutant
Sequence of Brd2(1)*(Met165Ala) (P25440 74-180 M165A limits assumed): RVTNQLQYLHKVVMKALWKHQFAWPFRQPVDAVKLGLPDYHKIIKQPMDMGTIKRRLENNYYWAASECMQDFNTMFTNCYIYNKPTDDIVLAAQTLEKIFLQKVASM
Method: (§1) DSF assays were performed on a LightCycler®480 from Roche or a Mx3005P Real Time PCR machine from Stratagene. Prior to DSF assays, frozen proteins were buffer exchanged using Vivaspin®6 concentrators with a 10 kDa cutoff on a Centrifuge 5430 from Eppendorf at a speed of 6000×g to remove glycerol and to buffer the proteins in 20 mM HEPES pH 7.5 at 25° C. and 100 mM NaCl. SYPRO®Orange from Invitrogen Molecular Probes® was used as a reporter dye to monitor the denaturing process of the proteins. Samples were assayed on a 96-well plate with final protein concentrations of 2 μM for the LightCycler®480 and 6 μM for Mx3005P. Compounds were added at a final concentration of 10 μM for the LightCycler®480 and 30 μM for Mx3005P, while the tetra acetylated histone peptide was added to a final concentration of 100 μM and 300 μM respectively. […] The temperature was raised with a step of 0.6° C. per minute from 37° C. to 95° C. with the LightCycler®480 collecting 39 measurements per ° C., and 1° C. per minute from 25° C. to 95° C. with Mx3005P, collecting fluorescence readings at the end of each interval. Each sample was run in triplicates.
(§2) Collected data was analysed by IGOR Pro 6, a scientific software tool from Wave Metrics, Inc. Analysis was done following the recommendations of Niesen et al.. Fluorescence intensity was plotted as a function of temperature, generating a sigmoidal curve described by a two-state transition from folded to unfolded protein. Curves were fitted by the following sigmoidal equation: […]
(§3) A1 and A2 are the values of minimum and maximum intensities, respectively, x0 is the inflection point and dx is the rate. Fitted curves were differentiated in IGOR Pro 6 and the maximum of the first derivative was identified using the same program. These values correspond to the inflection points of the transition curves and thus to the melting temperatures of the proteins (Tm).

Brd2(2)*(Met438-Leu) = molecular target: T1, Brd2(2)*(Met438-Leu) (Homo sapiens, UniProt P25440, M438L); assay: DSF thermal shift; format: binding; conditions: mutant
T1 construct: Plasmids of the eight single BET bromodomain constructs Brd2(1), Brd2(2), Brd3(1), Brd3(2); His6 (N); made in house; host or cells: E. coli BL21(DE3)
T1 sequence (P25440 344-453 M438L limits assumed): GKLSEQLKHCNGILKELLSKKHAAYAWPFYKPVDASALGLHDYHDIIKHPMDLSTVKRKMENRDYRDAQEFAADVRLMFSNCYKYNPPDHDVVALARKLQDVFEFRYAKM
Method: as §1, §2, §3

Brd2(1)*(Met165-Leu) = molecular target: T2, Brd2(1)*(Met165-Leu) (Homo sapiens, UniProt P25440, M165L); assay: DSF thermal shift; format: binding; conditions: mutant
T2 construct: Plasmids of the eight single BET bromodomain constructs Brd2(1), Brd2(2), Brd3(1), Brd3(2); His6 (N); made in house; host or cells: E. coli BL21(DE3)
T2 sequence (P25440 74-180 M165L limits assumed): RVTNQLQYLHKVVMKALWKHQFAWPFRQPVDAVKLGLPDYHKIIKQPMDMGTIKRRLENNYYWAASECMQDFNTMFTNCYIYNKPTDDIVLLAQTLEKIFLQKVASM
Method: as §1, §2, §3

Brd2(2)*(Met438-Ala) = molecular target: T3, Brd2(2)*(Met438-Ala) (Homo sapiens, UniProt P25440, M438A); assay: DSF thermal shift; format: binding; conditions: mutant
T3 construct: Plasmids of the eight single BET bromodomain constructs Brd2(1), Brd2(2), Brd3(1), Brd3(2); His6 (N); made in house; host or cells: E. coli BL21(DE3)
T3 sequence (P25440 344-453 M438A limits assumed): as the sequence (P25440 344-453 M438L limits assumed) above, with L95A counted along it
Method: as §1, §2, §3

Brd2(2)*(Trp370His) = molecular target: T4, Brd2(2)*(Trp370His) (Homo sapiens, UniProt P25440, W370H); assay: DSF thermal shift; format: binding; conditions: mutant
T4 construct: Plasmids of the eight single BET bromodomain constructs Brd2(1), Brd2(2), Brd3(1), Brd3(2); His6 (N); made in house; host or cells: E. coli BL21(DE3)
T4 sequence (P25440 344-453 W370H limits assumed): as the sequence (P25440 344-453 M438L limits assumed) above, with W27H, L95M counted along it
Method: as §1, with “Prior to DSF assays, frozen proteins were buffer exchanged using Vivaspin®6 concentrators with a 10 kDa cutoff on a Centrifuge 5430 from Eppendorf at a speed of 6000×g to remove glycerol and to buffer the proteins in 20 mM HEPES pH 7.5 at 25° C. and 100 mM NaCl.” left out
as §2, §3

Brd2(2)*(Trp370Phe) = molecular target: T5, Brd2(2)*(Trp370Phe) (Homo sapiens, UniProt P25440, W370F); assay: DSF thermal shift; format: binding; conditions: mutant
T5 construct: Plasmids of the eight single BET bromodomain constructs Brd2(1), Brd2(2), Brd3(1), Brd3(2); His6 (N); made in house; host or cells: E. coli BL21(DE3)
T5 sequence (P25440 344-453 W370F limits assumed): as the sequence (P25440 344-453 M438L limits assumed) above, with W27F, L95M counted along it
Method: as §1, with “Prior to DSF assays, frozen proteins were buffer exchanged using Vivaspin®6 concentrators with a 10 kDa cutoff on a Centrifuge 5430 from Eppendorf at a speed of 6000×g to remove glycerol and to buffer the proteins in 20 mM HEPES pH 7.5 at 25° C. and 100 mM NaCl.” left out
as §2, §3

Brd2(1)*(Trp097Phe) = molecular target: T6, Brd2(1)*(Trp097Phe) (Homo sapiens, UniProt P25440, W97F); assay: DSF thermal shift; format: binding; conditions: mutant
T6 construct: Plasmids of the eight single BET bromodomain constructs Brd2(1), Brd2(2), Brd3(1), Brd3(2); His6 (N); made in house; host or cells: E. coli BL21(DE3)
T6 sequence (P25440 74-180 W97F limits assumed): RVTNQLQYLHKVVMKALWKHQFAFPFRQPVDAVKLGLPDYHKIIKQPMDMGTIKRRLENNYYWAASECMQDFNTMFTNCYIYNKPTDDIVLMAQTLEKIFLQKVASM
Method: as §1, with “Prior to DSF assays, frozen proteins were buffer exchanged using Vivaspin®6 concentrators with a 10 kDa cutoff on a Centrifuge 5430 from Eppendorf at a speed of 6000×g to remove glycerol and to buffer the proteins in 20 mM HEPES pH 7.5 at 25° C. and 100 mM NaCl.” left out
as §2, §3

Brd2(1) = molecular target: T7, Brd2(1) (Homo sapiens, UniProt P25440); assay: DSF thermal shift; format: binding; conditions: wild type
T7 construct: Plasmids of the eight single BET bromodomain constructs Brd2(1), Brd2(2), Brd3(1), Brd3(2); His6 (N); made in house; host or cells: E. coli BL21(DE3)
T7 sequence (P25440 74-180 limits assumed): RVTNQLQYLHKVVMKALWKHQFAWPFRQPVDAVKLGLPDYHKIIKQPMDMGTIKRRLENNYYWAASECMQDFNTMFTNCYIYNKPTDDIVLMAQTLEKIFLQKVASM
Method: as §1, with “Prior to DSF assays, frozen proteins were buffer exchanged using Vivaspin®6 concentrators with a 10 kDa cutoff on a Centrifuge 5430 from Eppendorf at a speed of 6000×g to remove glycerol and to buffer the proteins in 20 mM HEPES pH 7.5 at 25° C. and 100 mM NaCl.” left out
as §2, §3

Brd2(2) = molecular target: T8, Brd2(2) (Homo sapiens, UniProt P25440); assay: DSF thermal shift; format: binding; conditions: wild type
T8 construct: Plasmids of the eight single BET bromodomain constructs Brd2(1), Brd2(2), Brd3(1), Brd3(2); His6 (N); made in house; host or cells: E. coli BL21(DE3)
T8 sequence (P25440 344-453 limits assumed): as the sequence (P25440 344-453 M438L limits assumed) above, with L95M counted along it
Method: as §1, with “Prior to DSF assays, frozen proteins were buffer exchanged using Vivaspin®6 concentrators with a 10 kDa cutoff on a Centrifuge 5430 from Eppendorf at a speed of 6000×g to remove glycerol and to buffer the proteins in 20 mM HEPES pH 7.5 at 25° C. and 100 mM NaCl.” left out
as §2, §3

Brd2(1)*(Trp097His) = molecular target: T9, Brd2(1)*(Trp097His) (Homo sapiens, UniProt P25440, W97H); assay: DSF thermal shift; format: binding; conditions: mutant
T9 construct: Plasmids of the eight single BET bromodomain constructs Brd2(1), Brd2(2), Brd3(1), Brd3(2); His6 (N); made in house; host or cells: E. coli BL21(DE3)
T9 sequence (P25440 74-180 W97H limits assumed): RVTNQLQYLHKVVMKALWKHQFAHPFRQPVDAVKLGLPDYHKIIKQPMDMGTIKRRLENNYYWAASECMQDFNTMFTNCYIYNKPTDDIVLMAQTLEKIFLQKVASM
Method: as §1, with “Prior to DSF assays, frozen proteins were buffer exchanged using Vivaspin®6 concentrators with a 10 kDa cutoff on a Centrifuge 5430 from Eppendorf at a speed of 6000×g to remove glycerol and to buffer the proteins in 20 mM HEPES pH 7.5 at 25° C. and 100 mM NaCl.” left out
as §2, §3

Row | SMILES | Selectivity for Brd2(2) mutants relative to wild type by ITC (FIG. 16) [1] | ΔTm Brd2(1)*(Met165-Ala) (Brd2(1)*(Met165Ala)) [K] | ΔTm Brd2(2)*(Met165-Leu) (Brd2(2)*(Met438-Leu)) [K] | ΔTm Brd2(1)*(Met165-Leu) (Brd2(1)*(Met165-Leu)) [K] | ΔTm Brd2(2)*(Met165-Ala) (Brd2(2)*(Met438-Ala)) [K] | ΔTm Brd2(1) (Brd2(1)) [K] | ΔTm Brd2(2) (Brd2(2)) [K] | further results
1 | CCNC(=O)[C@H](CC)[C@@H]1N=C(c2ccc(Cl)cc2)c2cc(OC)ccc2-n2c(C)nnc21 (racemic) [ET-Am1, (+−) (R)-2-((S)-6-(4-chlorophenyl)-8-methoxy-1-methyl-4H-benzo[f][1,2,4]triazolo[4,3-a][1,4]diazepin-4-yl)-N-ethylbutanamide] | higher selectivity for the mutants relative to wild types | – | – | – | – | – | – | –
2 | CCNC(=O)[C@H](C)[C@@H]1N=C(c2ccc(Cl)cc2)c2cc(OC)ccc2-n2c(C)nnc21 (racemic) [ME-Am1, (+−) (R)-2-((S)-6-(4-chlorophenyl)-8-methoxy-1-methyl-4H-benzo[f][1,2,4]triazolo[4,3-a][1,4]diazepin-4-yl)-N-ethylpropanamide] | higher selectivity for the mutants relative to wild types | – | – | – | – | – | – | –
3 | C=CC[C@@H](C(=O)OC)[C@@H]1N=C(c2ccc(Cl)cc2)c2cc(OC)ccc2-n2c(C)nnc21 (racemic) [AL, (+−)methyl (R)-2-((S)-6-(4-chlorophenyl)-8-methoxy-1-methyl-4H-benzo[f][1,2,4]triazolo[4,3-a][1,4]diazepin-4-yl)pent-4-enoate] | higher selectivity for the mutants relative to wild types | – | – | – | – | – | – | –
4 | CC[C@@H](C(=O)OC)[C@@H]1N=C(c2ccc(Cl)cc2)c2ccc(OC)cc2-n2c(C)nnc21 (racemic) [Compound 9-ET, (+−) methyl (R)-2-((S)-6-(4-chlorophenyl)-9-methoxy-1-methyl-4H-benzo[f][1,2,4]triazolo[4,3-a][1,4]diazepin-4-yl)butanoate] | higher selectivity for the mutants relative to wild types | – | – | – | – | – | – | –
5 | CC[C@@H](C(=O)N(CC)CC)[C@@H]1N=C(c2ccc(Cl)cc2)c2cc(OC)ccc2-n2c(C)nnc21 (racemic) [ET-Am2, (+−) (R)-2-((S)-6-(4-chlorophenyl)-8-methoxy-1-methyl-4H-benzo[f][1,2,4]triazolo[4,3-a][1,4]diazepin-4-yl)-N,N-diethylbutanamide] | higher selectivity for the mutants relative to wild types | – | – | – | – | – | – | –
6 | COc1ccccc1S(=O)(=O)Nc1ccc2c(c1)CN(C)C(=O)N2 [PFI-1, reference compound] | – | 1.6 ± 0.1 | 2.1 ± 0.3 | 1.3 ± 0.3 | 1.7 ± 0.1 | 4.5 ± 0.3 | 4.5 ± 0.2 | ΔTm Brd2(2)*(Tryp370-His) (Brd2(2)*(Trp370His)): 1.8 ± 0.0 K; ΔTm Brd2(2)*(Tryp370-Phe) (Brd2(2)*(Trp370Phe)): 2.9 ± 0.3 K; ΔTm Brd2(1)*(Tryp097-Phe) (Brd2(1)*(Trp097Phe)): 2.6 ± 0.4 K; ΔTm Brd2(1)*(Tryp097-His) (Brd2(1)*(Trp097His)): 1.9 ± 0.5 K
7 | CCNC(=O)[C@H](C)[C@@H]1N=C(c2ccc(Cl)cc2)c2ccc(OC)cc2-n2c(C)nnc21 (racemic) [Compound 9-ME-Am1, (+−) (R)-2-((S)-6-(4-chlorophenyl)-9-methoxy-1-methyl-4H-benzo[f][1,2,4]triazolo[4,3-a][1,4]diazepin-4-yl)-N-ethylpropanamide] | higher selectivity for the mutants relative to wild types | – | – | – | – | – | – | –
8 | COc1ccc(S(=O)(=O)Nc2ccc3c(c2)CN(C)C(=O)N3)cc1 [Compound 47, 4-methoxy-N-(3-methyl-2-oxo-1,2,3,4-tetrahydroquinazolin-6-yl)benzenesulfonamide] | – | 0.0 ± 0.3 | 1.3 ± 0.2 | 0.1 ± 0.3 | 1.6 ± 0.3 | 2.4 ± 0.1 | 3.1 ± 0.4 | –
9 | CN1Cc2cc(NS(=O)(=O)c3ccc(C(C)(C)C)cc3)ccc2NC1=O [Compound 46, 4-(tert-butyl)-N-(3-methyl-2-oxo-1,2,3,4-tetrahydroquinazolin-6-yl)benzenesulfonamide] | – | 5.1 ± 0.2 | 0.3 ± 0.2 | 0.1 ± 0.1 | 2.5 ± 0.2 | 1.1 ± 0.2 | 0.8 ± 0.1 | –
10 | COc1ccc(S(=O)(=O)Nc2ccc3c(c2)CN(C)C(=O)N3)c(OC)c1 [Compound 54, 2,4-dimethoxy-N-(3-methyl-2-oxo-1,2,3,4-tetrahydroquinazolin-6-yl)benzenesulfonamide] | – | 1.5 ± 0.2 | 2.4 ± 0.4 | 2.7 ± 0.3 | 2.3 ± 0.1 | 2.4 ± 0.2 | 1.6 ± 0.2 | –
11 | COc1cc(C)ccc1S(=O)(=O)Nc1ccc2c(c1)CN(C)C(=O)N2 [Compound 52, 2-methoxy-4-methyl-N-(3-methyl-2-oxo-1,2,3,4-tetrahydroquinazolin-6-yl)benzenesulfonamide] | – | 1.2 ± 0.2 | 2.4 ± 0.1 | 3.1 ± 0.2 | 2.0 ± 0.2 | 4.7 ± 0.2 | 2.8 ± 0.2 | –
